The text below walks through data of US8937041B2, “Macrocyclic hepatitis C serine protease inhibitors” (AbbVie, Inc., priority 2010, dated 2015).

Series [1] addresses recombinant HCV NS3 protease, genotype 1b (Hepatitis C virus genotype 1b, UniProt Q9WMX2). Nature of the series: biochemical. Particulars: genotype 1b NS3 protease; read-out: IC50 in a 1b enzyme assay.
The target in series [2] is recombinant HCV NS3 protease, genotype 1a (Hepatitis C virus genotype 1a, UniProt P27958). Nature of the series: biochemical. Particulars: genotype 1a NS3 protease; read-out: IC50 in a 1a enzyme assay.
recombinant HCV NS3 protease, genotype 1a, sequence (P27958 1027-1657, other chains not shown): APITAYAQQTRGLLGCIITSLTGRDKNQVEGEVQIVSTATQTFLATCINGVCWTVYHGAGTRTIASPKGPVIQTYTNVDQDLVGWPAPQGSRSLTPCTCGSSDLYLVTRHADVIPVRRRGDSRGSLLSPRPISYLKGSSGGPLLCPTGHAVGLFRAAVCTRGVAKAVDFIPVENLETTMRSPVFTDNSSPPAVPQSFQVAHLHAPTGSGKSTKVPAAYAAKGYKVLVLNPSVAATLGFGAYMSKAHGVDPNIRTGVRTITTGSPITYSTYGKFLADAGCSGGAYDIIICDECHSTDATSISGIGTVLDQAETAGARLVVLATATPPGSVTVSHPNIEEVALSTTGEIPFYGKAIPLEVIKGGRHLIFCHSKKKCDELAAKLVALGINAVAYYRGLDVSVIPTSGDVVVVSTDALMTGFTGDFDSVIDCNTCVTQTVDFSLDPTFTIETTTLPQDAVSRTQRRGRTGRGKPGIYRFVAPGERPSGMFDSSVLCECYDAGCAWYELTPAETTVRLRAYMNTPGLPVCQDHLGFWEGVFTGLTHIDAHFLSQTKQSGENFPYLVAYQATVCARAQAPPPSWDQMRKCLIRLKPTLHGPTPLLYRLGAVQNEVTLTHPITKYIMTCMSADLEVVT
Series [3] in a line: HLM stability. The format is in vitro ADME.
Series [4] concerns HCV genotype 1b replicon (1b-Con-1). The experiment in a line: microbe, parasite or virus in culture. The format is cell-based. Particulars: Hepatitis C virus, read-out: EC50 in a replicon cell line assay in a 1b-con1 background. (In general: Replicon systems follow genome replication, usually without infectious particles.)
Series [5] deals with HCV genotype 1a replicon (1a-H77). Nature of the series: microbe, parasite or virus in culture. The format is cell-based. Particulars: Hepatitis C virus, read-out: EC50 in a replicon cell line assay in a 1a-H77 background.

recombinant HCV NS3 protease, genotype 1b, sequence (Q9WMX2 1027-1657, other chains not shown): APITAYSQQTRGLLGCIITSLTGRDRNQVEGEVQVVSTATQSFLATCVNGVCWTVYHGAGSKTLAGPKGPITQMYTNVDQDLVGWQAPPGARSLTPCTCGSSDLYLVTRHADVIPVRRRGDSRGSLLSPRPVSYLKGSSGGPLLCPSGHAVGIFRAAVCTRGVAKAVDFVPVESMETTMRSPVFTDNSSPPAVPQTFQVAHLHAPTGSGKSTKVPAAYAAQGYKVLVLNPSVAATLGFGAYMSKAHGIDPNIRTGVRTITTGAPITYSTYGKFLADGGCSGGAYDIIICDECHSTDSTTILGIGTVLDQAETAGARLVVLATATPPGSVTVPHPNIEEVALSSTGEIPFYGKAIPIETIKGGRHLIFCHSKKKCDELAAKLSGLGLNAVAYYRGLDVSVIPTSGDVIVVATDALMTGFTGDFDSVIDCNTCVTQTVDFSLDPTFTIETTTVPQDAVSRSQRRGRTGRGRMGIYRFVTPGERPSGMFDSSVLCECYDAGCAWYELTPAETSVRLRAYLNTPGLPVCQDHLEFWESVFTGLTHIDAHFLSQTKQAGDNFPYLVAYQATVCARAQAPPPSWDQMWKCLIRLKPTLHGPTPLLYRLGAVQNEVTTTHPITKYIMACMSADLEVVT

A word on the IC50: it is the concentration that gives 50% inhibition. The term EC50 denotes the concentration needed to bring the measured effect to its halfway point. For `CCc1nc2ccccc2nc1O[C@@H]1C[C@H]2C(=O)N[C@]3(C(=O)NS(=O)(=O)C4CC4)C[C@H]3CC(F)(F)CCCCC[C@H](NC(=O)c3ccon3)C(=O)N2C1` [Example 11, N-((2R,6S ,13aS,14aR,16aS)-14a-(cyclopropylsulfonylcarbamoyl)-2-(3-ethylquinoxalin-2-yloxy)-12,12-difluoro-5,16-dioxooctadecahydrocyclopropa[e]pyrrolo[1,2-a][1,4]diazacyclopentadecin-6-yl)isoxazole-3-carboxamide], the IC50 in series [1] and in series [2] was 0.1 to 0.5 nM throughout. In series [3], the HLM stability value is less than 50 µL/min/mg. Further, the EC50 in series [4] is 2 to 5 nM; in series [5] it was more than 5 nM.

Turning to `CCc1nc2ccccc2nc1O[C@@H]1C[C@H]2C(=O)N[C@]3(C(=O)NS(=O)(=O)C4CC4)C[C@H]3CC(F)(F)CCCCC[C@H](NC(=O)C(C)(C)C)C(=O)N2C1` [Example 12, (2R,6S,13aS,14aR,16a5)-N-(cyclopropylsulfonyl)-2-(3-ethylquinoxalin-2-yloxy)-12,12-difluoro-5,16-dioxo-6-pivalamidooctadecahydrocyclopropa[e]pyrrolo[1,2-a][1,4]diazacyclopentadecine-14a-carboxamide], the IC50 in series [1] and in series [2] was 0.5 to 1 nM throughout. In series [3], this molecule had an HLM stability value of less than 50 µL/min/mg. Further, the EC50 in series [4] and in series [5] was more than 5 nM throughout.

As to `Cc1cc(C(=O)N[C@H]2CCCCCC(F)(F)C[C@@H]3C[C@@]3(C(=O)NS(=O)(=O)C3CC3)NC(=O)[C@@H]3C[C@@H](Oc4nc5ccccc5nc4-c4nc5ccccc5s4)CN3C2=O)no1` [Example 14, N-((2R,6S,13aS,14aR,16aS)-2-(3-(benzo[d]thiazol-2-yl)quinoxalin-2-yloxy)-14a-(cyclopropylsulfonylcarbamoyl)-12,12-difluoro-5,16-dioxooctadecahydrocyclopropa[e]pyrrolo [1,2-a][1,4]diazacyclopentadecin-6-yl)-5-methylisoxazole-3-carboxamide], the 50% inhibitory concentration (IC50) in series [1] and in series [2] was 0.1 to 0.5 nM in each case. In series [3], this molecule showed an HLM stability value of less than 50 µL/min/mg. Also, the EC50 in series [4] was 1 to 2 nM; in series [5] it was 2 to 5 nM.

As to `CC(C)(C)OC(=O)N[C@H]1CCCCCC(F)(F)C[C@@H]2C[C@@]2(C(=O)NS(=O)(=O)C2CC2)NC(=O)[C@@H]2C[C@@H](Oc3nc4ccccc4c4ccccc34)CN2C1=O` [Example 19, tert-butyl (2R,6S,13aS,14aR,16aS)-14a-(cyclopropylsulfonylcarbamoyl)-12,12-difluoro-5,16-dioxo-2-(phenanthridin-6-yloxy)octadecahydrocyclopropa[e]pyrrolo[1,2-a][1,4]diazacyclopentadecin-6-ylcarbamate], the IC50 in series [1] and in series [2] was less than 0.1 nM each time. The HLM stability value in series [3] is more than 100 µL/min/mg. The EC50 in series [4] and in series [5] was less than 1 nM each time.
